molecular target: T1, GCase (Homo sapiens, UniProt P04062); experiment: activation of GCase in a live cell PFB assay in HELA cells; format: cell-based; conditions: EC50 given as range classes
T1 construct: endogenous in cells; host or cells: HeLa cells
T1 sequence (P04062 40-536): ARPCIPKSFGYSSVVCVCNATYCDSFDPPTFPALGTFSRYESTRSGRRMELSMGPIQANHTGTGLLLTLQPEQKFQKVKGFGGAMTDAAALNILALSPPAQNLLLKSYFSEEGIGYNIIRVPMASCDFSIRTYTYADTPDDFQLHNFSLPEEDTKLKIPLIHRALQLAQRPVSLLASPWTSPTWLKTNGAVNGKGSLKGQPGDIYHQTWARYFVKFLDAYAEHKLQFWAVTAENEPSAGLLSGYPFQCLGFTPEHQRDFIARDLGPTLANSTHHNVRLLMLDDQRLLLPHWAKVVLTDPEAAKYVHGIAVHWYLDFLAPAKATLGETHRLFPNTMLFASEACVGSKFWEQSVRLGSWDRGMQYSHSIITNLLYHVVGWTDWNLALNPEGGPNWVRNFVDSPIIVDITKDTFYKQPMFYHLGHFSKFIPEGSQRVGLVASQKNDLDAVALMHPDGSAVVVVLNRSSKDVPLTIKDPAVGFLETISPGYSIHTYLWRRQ
Experimental: Exemplary compounds were evaluated for activation of GCase in a live cell PFB assay in HELA cells (essentially as described in Ysselstein et al., “LRRK2 kinase activity regulates lysosomal glucocerebrosidase in neurons derived from Parkinson's disease patients” Nature Communications (2019) 10:5570). […] EC50 ranges: A: <10 μM; B: >10-50 μM; C: >50-100 μM; D: >100 μM.

SMILES	EC50
COc1cccc(C(=O)N2CC3(CCN(c4cnc5cnn(CC(F)F)c5n4)C3)C2)c1 [Cmpd 380]	< 10 µM
Cc1cccc(C(=O)N2CC3(CCN(c4cnc5cnn(CC(F)F)c5n4)C3)C2)c1 [Cmpd 381]	< 10 µM
O=C(c1cccc(C(F)(F)F)c1)N1CC2(CCN(c3cnc4cnn(CC(F)F)c4n3)C2)C1 [Cmpd 382]	10 to 50 µM
O=C(c1cccc(OC(F)(F)F)c1)N1CC2(CCN(c3cnc4cnn(CC(F)F)c4n3)C2)C1 [Cmpd 388]	10 to 50 µM
O=C(c1ccccc1OC(F)F)N1CC2(CCN(c3cnc4cnn(CC(F)F)c4n3)C2)C1 [Cmpd 389]	< 10 µM
O=C(c1ccccc1OC(F)(F)F)N1CC2(CCN(c3cnc4cnn(CC(F)F)c4n3)C2)C1 [Cmpd 390]	< 10 µM
COc1ccccc1C(=O)N1CC2(CCN(c3cnc4cnn(CC(F)F)c4n3)C2)C1 [Cmpd 391]	< 10 µM
O=C(c1ccccc1C(F)(F)F)N1CC2(CCN(c3cnc4cnn(CC(F)F)c4n3)C2)C1 [Cmpd 392]	< 10 µM
O=S(=O)(c1ccccc1C(F)(F)F)N1CC2(CCN(c3cnc4cnn(CC(F)F)c4n3)C2)C1 [Cmpd 396]	10 to 50 µM
FC(F)Cn1ncc2ncc(N3CCC4(CN(c5cncc(Cl)c5)C4)C3)nc21 [Cmpd 401]	10 to 50 µM
Cc1nc(N2CC3(CCN(c4cnc5cnn(CC(F)F)c5n4)C3)C2)ncc1Cl [Cmpd 402]	> 100 µM
Cc1cc(N2CC3(CCN(c4cnc5cnn(CC(F)F)c5n4)C3)C2)nc(C(F)(F)F)n1 [Cmpd 404]	< 10 µM
FC(F)Cn1ncc2ncc(N3CCC4(CN(c5cccc(OC(F)(F)F)n5)C4)C3)nc21 [Cmpd 405]	10 to 50 µM
FC(F)Cn1ncc2ncc(N3CCC4(CN(c5cccc(OC(F)F)n5)C4)C3)nc21 [Cmpd 406]	10 to 50 µM
Cc1cc(Cl)cnc1N1CC2(CCN(c3cnc4cnn(CC(F)F)c4n3)C2)C1 [Cmpd 408]	10 to 50 µM
FC(F)Cn1ncc2ncc(N3CCC4(CN(c5cccc(OCC(F)(F)F)n5)C4)C3)nc21 [Cmpd 409]	10 to 50 µM
COc1ncc(N2CC3(CCN(c4cnc5cnn(CC(F)F)c5n4)C3)C2)cn1 [Cmpd 410]	50 to 100 µM
FC(F)Cn1ncc2ncc(N3CCC4(CN(c5ccnc(OC(F)(F)F)c5)C4)C3)nc21 [Cmpd 411]	10 to 50 µM

SMILES	EC50
FC(F)Cn1ncc2ncc(N3CCC4(CN(c5ccnc(OCC(F)(F)F)c5)C4)C3)nc21 [Cmpd 412]	10 to 50 µM
O=S(=O)(c1cncc(C(F)(F)F)c1)N1CC2(CCN(c3cnc4cnn(CC(F)F)c4n3)C2)C1 [Cmpd 413]	< 10 µM
O=S(=O)(c1ccc(C(F)(F)F)nc1)N1CC2(CCN(c3cnc4cnn(CC(F)F)c4n3)C2)C1 [Cmpd 414]	10 to 50 µM
O=S(=O)(CCC(F)(F)F)N1CC2(CCN(c3cnc4cnn(CC(F)F)c4n3)C2)C1 [Cmpd 415]	10 to 50 µM
Cc1ccc(S(=O)(=O)N2CC3(CCN(c4cnc5cnn(CC(F)F)c5n4)C3)C2)cn1 [Cmpd 416]	10 to 50 µM
Cc1cccc(S(=O)(=O)N2CC3(CCN(c4cnc5cnn(CC(F)F)c5n4)C3)C2)c1 [Cmpd 417]	< 10 µM
O=C(c1cc(Cl)cc(Cl)n1)N1CC2(CCN(c3cnc4cnn(CC(F)F)c4n3)C2)C1 [Cmpd 420]	10 to 50 µM
Cc1nc(N2CC3(CCN(c4cnc5cnn(CC(F)F)c5n4)C3)C2)cc(C(F)(F)F)n1 [Cmpd 422]	< 10 µM
FC(F)(F)Cn1ncc2cnc(N3CCC4(CN(c5ccnc(C(F)(F)F)c5)C4)C3)nc21 [Cmpd 424]	< 10 µM
FC(F)(F)c1cc(N2CC3(CCN(c4cncc(-c5nncs5)n4)C3)C2)ccn1 [Cmpd 425]	50 to 100 µM
FC(F)(F)Cn1ncc2ncc(N3CCC4(CN(c5cnc(C(F)(F)F)nc5)C4)C3)nc21 [Cmpd 426]	10 to 50 µM
FC(F)(F)c1ncc(N2CC3(CCN(c4cnc5cnn(C6COC6)c5n4)C3)C2)cn1 [Cmpd 427]	10 to 50 µM
Cc1nn(C2COC2)c2nc(N3CCC4(CN(c5cnc(C(F)(F)F)nc5)C4)C3)cnc12 [Cmpd 428]	< 10 µM
Cc1nn(CC(F)F)c2nc(N3CCC4(CN(c5cnc(C(F)(F)F)nc5)C4)C3)cnc12 [Cmpd 429]	> 100 µM
FC(F)(F)c1ncc(N2CC3(CCN(c4cncc(-c5nncs5)n4)C3)C2)cn1 [Cmpd 430]	< 10 µM
FC(F)(F)Cn1ncc2cnc(N3CCC4(CN(c5cnc(C(F)(F)F)nc5)C4)C3)nc21 [Cmpd 432]	< 10 µM
Cc1nn(CC(F)F)c2nc(N3CCC4(CN(c5cnc(C(F)(F)F)nc5)C4)C3)ncc12 [Cmpd 433]	10 to 50 µM

The next lines start with the values.

EC50	SMILES
> 100 µM	O=C(c1ccc(Cl)cc1)N1CC2(CCN(c3cnc4cnn(CC(F)F)c4n3)C2)C1 [Cmpd 378]
10 to 50 µM	COc1ccc(C(=O)N2CC3(CCN(c4cnc5cnn(CC(F)F)c5n4)C3)C2)cc1 [Cmpd 379]
< 10 µM	O=C(c1ccccc1Cl)N1CC2(CCN(c3cnc4cnn(CC(F)F)c4n3)C2)C1 [Cmpd 383]
< 10 µM	Cc1ccccc1C(=O)N1CC2(CCN(c3cnc4cnn(CC(F)F)c4n3)C2)C1 [Cmpd 384]
10 to 50 µM	Cc1ccc(S(=O)(=O)N2CC3(CCN(c4cnc5cnn(CC(F)F)c5n4)C3)C2)cc1 [Cmpd 385]
10 to 50 µM	O=S(=O)(c1ccc(Cl)cc1)N1CC2(CCN(c3cnc4cnn(CC(F)F)c4n3)C2)C1 [Cmpd 386]
10 to 50 µM	O=C(c1ccc(OC(F)F)cc1)N1CC2(CCN(c3cnc4cnn(CC(F)F)c4n3)C2)C1 [Cmpd 387]
10 to 50 µM	O=S(=O)(c1ccccc1Cl)N1CC2(CCN(c3cnc4cnn(CC(F)F)c4n3)C2)C1 [Cmpd 393]
10 to 50 µM	Cc1ccccc1S(=O)(=O)N1CC2(CCN(c3cnc4cnn(CC(F)F)c4n3)C2)C1 [Cmpd 394]
< 10 µM	O=S(=O)(c1ccccc1F)N1CC2(CCN(c3cnc4cnn(CC(F)F)c4n3)C2)C1 [Cmpd 395]
10 to 50 µM	O=C1CC2(CCN(c3cnc4cnn(CC(F)F)c4n3)CC2)CN1Cc1ccc(F)cn1 [Cmpd 397]
10 to 50 µM	Cc1cc(CN2CC3(CCN(c4cnc5cnn(CC(F)F)c5n4)CC3)CC2=O)no1 [Cmpd 398]
10 to 50 µM	Cc1csc(CN2CC3(CCN(c4cnc5cnn(CC(F)F)c5n4)CC3)CC2=O)n1 [Cmpd 399]
10 to 50 µM	O=C1CC2(CCN(c3cnc4cnn(CC(F)F)c4n3)CC2)CN1Cc1ccc(Cl)cn1 [Cmpd 400]
10 to 50 µM	FC(F)Cn1ncc2ncc(N3CCC4(CN(c5ccc(Cl)cn5)C4)C3)nc21 [Cmpd 403]
10 to 50 µM	Fc1cc(Cl)cnc1N1CC2(CCN(c3cnc4cnn(CC(F)F)c4n3)C2)C1 [Cmpd 407]
< 10 µM	O=S(=O)(c1cccc(Cl)c1)N1CC2(CCN(c3cnc4cnn(CC(F)F)c4n3)C2)C1 [Cmpd 418]
10 to 50 µM	Cc1ccc(C(=O)N2CC3(CCN(c4cnc5cnn(CC(F)F)c5n4)C3)C2)cc1 [Cmpd 419]
< 10 µM	O=C1CC2(CCN(c3cnc4cnn(CC(F)F)c4n3)CC2)CN1Cc1ccc(Cl)cc1F [Cmpd 421]
10 to 50 µM	Cc1ncc(CN2CC3(CCN(c4cnc5cnn(CC(F)F)c5n4)CC3)CC2=O)s1 [Cmpd 423]

same assay, conditions: activation of GCase, EC50 ranges

SMILES	EC50
FC(F)(F)c1cc(N2CCC3(C2)CN(c2ncc4cnn(C5COC5)c4n2)C3)ccn1 [Cmpd 376]	10 to 50 µM
FC(F)(F)c1ncc(N2CC3(CCN(c4ncc5cnn(C6COC6)c5n4)C3)C2)cn1 [Cmpd 434]	10 to 50 µM
O=C(c1cccc(OC(F)F)c1)N1CC2(CCN(c3cnc4cnn(CC(F)F)c4n3)C2)C1 [Cmpd 435]	< 10 µM
FC(F)Cn1ncc2ncc(N3CCC4(CN(c5ccc(OCC(F)(F)F)nc5)C4)C3)nc21 [Cmpd 436]	10 to 50 µM
Cc1cc(C(F)(F)F)cnc1N1CC2(CCN(c3cnc4cnn(CC(F)F)c4n3)C2)C1 [Cmpd 437]	50 to 100 µM
FC(F)Cn1ncc2ncc(N3CCC4(C3)CN(c3ncc(Cl)cn3)C4)nc21 [Cmpd 438]	10 to 50 µM
FC(F)Cn1ncc2ncc(N3CCC4(CN(c5cnc(OCC(F)(F)F)nc5)C4)C3)nc21 [Cmpd 439]	10 to 50 µM
FC(F)Cn1ncc2ncc(N3CCC4(CN(c5ccc(C(F)(F)F)nn5)C4)C3)nc21 [Cmpd 440]	50 to 100 µM

More lines, now with the values ahead:

EC50	SMILES
> 100 µM	O=C(c1ccc(C(F)(F)F)cc1)N1CC2(CCN(c3cnc4cnn(CC(F)F)c4n3)C2)C1 [Cmpd 377]
< 10 µM	O=C1CC2(CCN(c3cnc4cnn(CC(F)F)c4n3)CC2)CN1Cc1ccc(OC(F)(F)F)cc1 [Cmpd 441]
< 10 µM	O=C1CC2(CCN(c3cnc4cnn(CC(F)F)c4n3)CC2)CN1Cc1ccc(OC(F)F)cc1 [Cmpd 442]
< 10 µM	O=C1CC2(CCN(c3cnc4cnn(CC(F)F)c4n3)CC2)CN1Cc1ccc(C(F)(F)F)cc1 [Cmpd 443]
< 10 µM	O=C1CC2(CCN(c3cnc4cnn(CC(F)F)c4n3)CC2)CN1Cc1ccc(F)cc1 [Cmpd 444]
10 to 50 µM	O=C1CC2(CCN(c3cnc4cnn(CC(F)F)c4n3)CC2)CN1Cc1ccc(Cl)cc1 [Cmpd 445]
< 10 µM	O=C1CC2(CCN(c3cnc4cnn(CC(F)F)c4n3)CC2)CN1Cc1ccc(C(F)(F)F)cc1F [Cmpd 446]
< 10 µM	O=C1CC2(CCN(c3cnc4cnn(CC(F)F)c4n3)CC2)CN1Cc1cc(F)ccc1F [Cmpd 447]
< 10 µM	O=C1CC2(CCN(c3cnc4cnn(CC(F)F)c4n3)CC2)CN1Cc1ccc(Cl)c(F)c1 [Cmpd 448]
< 10 µM	O=C1CC2(CCN(c3cnc4cnn(CC(F)F)c4n3)CC2)CN1Cc1ccc(F)c(Cl)c1 [Cmpd 449]
